From patent US20170087180A1, “METHODS AND COMPOSITIONS FOR TREATING NITRIC OXIDE DEFICIENCY DISORDERS AND RELATED CONDITIONS” (Sulfagenix, Inc., priority 2014, published 2017)

Tested on: men with oligoasthenozoospermia
Assay: placebo-controlled randomized study of SG1002 compared to resveratrol in men with oligoasthenozoospermia
Assay type: in vivo
Conditions: SG1002 500 mg daily, resveratrol 50 mg daily, 54 men
Procedure: There was one placebo-controlled randomized study of SG1002,500 mg daily compared to resveratrol 50 mg daily in 54 men with oligoasthenozoospermia. Men treated with SG1002 had increased sperm concentration, motility and motile forms recovery compared to those treated with placebo. Resveratrol had no effect on any of these parameters. During the study, three men in the SG1002 arm withdrew: one due to excessive flatulence and nausea, one due to “smelly” sweating, and one for convenience.

Oc1ccc(C=Cc2cc(O)cc(O)c2)cc1 [Resveratrol, resveratrol]
no effect: motile forms recovery | sperm concentration | sperm motility
